From patent US12297223B2, “Compounds” (GLAXOSMITHKLINE INTELLECTUAL PROPERTY DEVELOPMENT LIMITED, priority 2019, dated 2025)

How the values were obtained:
[1] = Rat pharmacokinetics after IV infusion and oral dose (AUC oral, % F, Ue % PO); assay type: in vivo, Male Wistar Han rats; conditions: for DNAUC oral h*uM: PO 5 mg/kg, dose normalized AUC in blood, n = 3; for bioavailability: male, Wistar Han, whole blood; for bioavailability / %F: oral bioavailability, PO 5 mg/kg vs IV infusion 1 mg/kg; for Ue% po: percentage of oral dose eliminated unchanged in urine (or estimate from iv urine fraction times oral bioavailability)
From the text: General Assays for Obtaining AUC Oral h*μm, % F, and Ue % PO Values
Male Wistar Han rats were purchased from Vital River Laboratory Animal Technology Co. Ltd (Beijing, China). The animals were approx. 6-8 weeks old with body weights of 200-300 g on the dosing date. The animals were housed in a 12-hour light/12-hour dark cycle environment and had free access to food and water. All animals were fed prior to dosing. Studies were approved by the Pharmaron Institutional Animal Care and Use Committee (IACUC).
Test article was administered as an intravenous infusion for 1 hour (1 mg/kg) at 5 mL/kg/h. After 48 h, animals received a single oral dose (5 mg/kg, free form) at a dose volume of 10 mL/kg, respectively. Blood samples were collected at various time points after IV infusion and PO administrations. Urine samples were collected at various time points after IV infusion and PO administrations (for some compounds).
Test article was dissolved in DMSO with vortexing and sonification to obtain a stock solution. An aliquot of the stock solution was mixed with 10% HP-β-CD in saline with vortexing to obtain a solution with concentration at 0.2 mg/mL of test article.
Test article was added into 1% Methyl Cellulose with vortexing and sonication to obtain a homogeneous suspension with concentration at 0.5 mg/mL of test article.
For IV infusion (1 mg/kg) administration, blood samples were collected from each animal at 0, 0.25, 0.5, 0.75, 1, 1.08, 1.25, 1.5, 1.75, 2, 3, 5, 8, 12, 24 hour post-dose.
For PO (5 mg/kg) administration, blood samples were collected from each animal at 0, 0.25, 0.5, 1, 1.5, 2, 3, 4, 6, 8, 12, 24 hour post-dose.
Blood samples (50 μL) were collected from each animal via jugular vein. These blood samples were placed into tubes containing K2EDTA. Whole blood was mixed with same volume of water and inverted several times. The blood samples were stored at −75±15° C. until analysis.
For IV infusion (1 mg/kg) administration, urine samples were collected from each animal at 0-4, 4-8, 8-12, 12-24 hour post-dose.
For PO (5 mg/kg) administration, urine samples were collected (for some compounds) from each animal at 0-4, 4-8, 8-12, 12-24 hour post-dose.
55 μL of standards, 55 μL of QC samples or 55 μL of unknown samples (50 μL of blood or urine with 5 μL 50% acetonitrile) were mixed to 200 μL of acetonitrile containing IS (dexamethasone) to precipitate proteins. Then the samples were vortexed for 30 sec. After centrifugation at 4° C., 4700 rpm for 30 min, and 5 μL of the supernatant was injected into the LC-MS/MS system for quantitative analysis.
Test article blood and urine concentrations for each animal following IV infusion at 1 mg/kg and PO at 5 mg/kg were used to calculate pharmacokinetic parameters by employing a non-compartmental analysis (Phoenix™ WinNonlin® 7.0). The linear trapezoidal algorithm was used for AUC calculation. • AUC oral h*μM: Area under the curve (AUC) of drug concentration in blood vs. time (units: h*μM) following oral administration • % F: Oral bioavailability (%) derived from the ratio of dose-normalized AUC following PO and IV administration • Ue % PO: Percentage of oral dose eliminated unchanged in urine or an estimater of that parameter generated from using the percentage of the iv dose eliminated in the urine times the oral bioavailability

FimH = molecular target: T1, FimH (Escherichia coli, UniProt Q1R2J4); test: Hemagglutination inhibition (HAI) assay with UTI89 bacteria and guinea pig red blood cells; assay type: cell-based; conditions: HAI titer (EC>90): concentration reducing bacterial agglutination of guinea pig red blood cells by greater than 90%; further: ranges in brackets are in nM
T1 construct: endogenous in cells; host or cells: E. coli UTI89 (whole bacteria)
Protocol: “HAI titer or EC>90” is that concentration of the FimH inhibitor/antagonist which reduces the bacterial agglutination of guinea pig red blood cells by greater than 90%.
The activities of the Examples 1-34 compounds above as FimH antagonists/inhibitors were obtained by the following assay(s), and results are provided in Table 1. Results not provided mean that the activities have not yet been tested.
Hemagglutination Inhibition Assay (HAI)
The hemagglutination inhibition (HAI) assay was performed with UTI89 bacteria and guinea pig red blood cells, as previously described (S. J. Hultgren, W. R. Schwan, A. J. Schaeffer, J. L. Duncan Infect. Immun. 1986, 54, 613-620 and Jarvis, C.; Han, Z.; Kalas, V.; Klein, R.; Pinkner, J. S.; Ford, B.; Binkley, J.; Cusumano, C. K.; Cusumano, Z.; Mydock-McGrane, L.; Hultgren, S. J.; Janetka, J. W., Chem Med Chem 2016, 11, 367-373). Values not listed were not tested.

Row | Molecule | DNAUC oral h*uM [1] | bioavailability [1] [%] | Ue% po [1] | HAI (FimH) | %F [1]
1 | Cc1cc(-c2cc(C(F)(F)F)ccn2)ccc1[C@@H](C)[C@H]1O[C@H](CO)[C@@H](O)[C@H](O)[C@@H]1O (single isomer, unassigned) [Example 2] | “++” (0.5 ≤ x ≤ h · μM) | > 30 | “++” (0.5 ≤ x ≤ 5%) | “+++” (50-200) | –
2 | Cc1cc(-c2cc(F)cc(F)c2)ccc1[C@@H](C)[C@H]1O[C@H](CO)[C@@H](O)[C@H](O)[C@@H]1O (single isomer, unassigned) [Example 28] | – | – | – | “+++” (50-200) | –
3 | C#C[C@@H](c1ccc(-c2cc(F)c(Cl)c(F)c2)cc1C)[C@H]1O[C@H](CO)[C@@H](O)[C@H](O)[C@@H]1O (single isomer, unassigned) [Example 34] | – | – | – | “+++” (50-200) | –
4 | Cc1cc(-c2cnc(C(F)(F)F)cn2)ccc1[C@@H](C)[C@H]1O[C@H](CO)[C@@H](O)[C@H](O)[C@@H]1O [Example 1, (2R,3S,4R,5S,6R)-2-(Hydroxymethyl)-6-((R)-1-(2-methyl-4-(5-(trifluoromethyl)pyrazin-2-yl)phenyl)ethyl)tetrahydro-2H-pyran-3,4,5-triol] | “++” (0.5 ≤ x ≤ h · μM) | > 30 | “+++” (>5%) | “++++” (<50) | –
5 | C[C@H](c1ccc(-c2cnc(C(F)(F)F)cn2)cc1C(F)(F)F)[C@H]1O[C@H](CO)[C@@H](O)[C@H](O)[C@@H]1O [Example 3, (2R,3S,4R,5S,6R)-2-(hydroxymethyl)-6-((R)-1-(2-(trifluoromethyl)-4-(5-(trifluoromethyl)pyrazin-2-yl)phenyl)ethyl)tetrahydro-2H-pyran-3,4,5-triol] | “+++” (>1 h · μM) | > 30 | “+++” (>5%) | “++++” (<50) | –
6 | Cc1cc(-c2cncc(C(F)(F)F)c2)ccc1[C@@H](C)[C@H]1O[C@H](CO)[C@@H](O)[C@H](O)[C@@H]1O [Example 4, (2R,3S,4R,5S,6R)-2-(Hydroxymethyl)-6-((R)-1-(2-methyl-4-(5-(trifluoromethyl)pyridin-3-yl)phenyl)ethyl)tetrahydro-2H-pyran-3,4,5-triol] | “++” (0.5 ≤ x ≤ h · μM) | > 30 | “+++” (>5%) | “++++” (<50) | –
7 | Cc1cc(-c2cc(F)c(Cl)c(F)c2)ccc1[C@@H](CO)[C@H]1O[C@H](CO)[C@@H](O)[C@H](O)[C@@H]1O [Example 7, (2R,3S,4R,5S,6R)-2-((S)-1-(4′-chloro-3′,5′-difluoro-3-methyl-[1,1′-biphenyl]-4-yl)-2-hydroxyethyl)-6-(hydroxymethyl)tetrahydro-2H-pyran-3,4,5-triol] | “++” (0.5 ≤ x ≤ h · μM) | 10 to 30 | “++” (0.5 ≤ x ≤ 5%) | “++++” (<50) | –
8 | Cc1cc(-c2cc(F)cc(F)c2)ccc1[C@@H](CCO)[C@H]1O[C@H](CO)[C@@H](O)[C@H](O)[C@@H]1O [Example 11] | – | – | – | “+++” (50-200) | –
9 | Cc1cc(-c2cc(F)cc(F)c2)ccc1[C@@H](CO)[C@H]1O[C@H](CO)[C@@H](O)[C@H](O)[C@@H]1O [Example 12] | – | – | – | “+++” (50-200) | –
10 | C=C[C@H](c1ccc(-c2cc(F)cc(F)c2)cc1C)[C@H]1O[C@H](CO)[C@@H](O)[C@H](O)[C@@H]1O [Example 13] | – | – | – | “++” (201-1000) | –
11 | Cc1cc(-c2cc(F)c(Cl)c(F)c2)ccc1[C@@H](CCO)[C@H]1O[C@H](CO)[C@@H](O)[C@H](O)[C@@H]1O [Example 14] | “+” (<0.5 h · μM) | – | – | “++++” (<50) | –
12 | C=C[C@H](c1ccc(-c2cc(F)c3nccnc3c2)cc1C)[C@H]1O[C@H](CO)[C@@H](O)[C@H](O)[C@@H]1O [Example 15] | “+” (<0.5 h · μM) | – | – | “++++” (<50) | –
13 | CC[C@H](c1ccc(-c2ccn(C)c(=O)c2)cc1C)[C@H]1O[C@H](CO)[C@@H](O)[C@H](O)[C@@H]1O [Example 16] | “+” (<0.5 h · μM) | – | – | “+++” (50-200) | –
14 | CC[C@H](c1ccc(-c2cc(F)cc(C#N)c2)cc1C)[C@H]1O[C@H](CO)[C@@H](O)[C@H](O)[C@@H]1O [Example 17] | “+” (<0.5 h · μM) | – | – | – | –
15 | C=C[C@H](c1ccc(-c2cnc(C3CC3)cn2)cc1C)[C@H]1O[C@H](CO)[C@@H](O)[C@H](O)[C@@H]1O [Example 19] | “+” (<0.5 h · μM) | – | – | “++++” (<50) | –
16 | C=C[C@H](c1ccc(-c2cncc(C#N)c2)cc1C)[C@H]1O[C@H](CO)[C@@H](O)[C@H](O)[C@@H]1O [Example 20] | – | – | – | “+++” (50-200) | –
17 | CC[C@H](c1ccc(-c2cncc(C#N)c2)cc1C)[C@H]1O[C@H](CO)[C@@H](O)[C@H](O)[C@@H]1O [Example 21] | “+” (<0.5 h · μM) | – | – | “+++” (50-200) | –
18 | CC[C@H](c1ccc(-c2cnc(C3CC3)cn2)cc1C)[C@H]1O[C@H](CO)[C@@H](O)[C@H](O)[C@@H]1O [Example 22] | – | – | – | “+++” (50-200) | –
19 | Cc1cc(-c2ccc(C(F)(F)F)cn2)ccc1[C@@H](C)[C@H]1O[C@H](CO)[C@@H](O)[C@H](O)[C@@H]1O [Example 27] | – | – | – | “+++” (50-200) | –
20 | Cc1cc(-c2cncc(C(F)(F)F)n2)ccc1[C@@H](C)[C@H]1O[C@H](CO)[C@@H](O)[C@H](O)[C@@H]1O [Example 29] | “+” (<0.5 h · μM) | 10 to 30 | “++” (0.5 ≤ x ≤ 5%) | “++++” (<50) | –
21 | Cc1cc(-c2cncc(F)c2)ccc1[C@@H](C)[C@H]1O[C@H](CO)[C@@H](O)[C@H](O)[C@@H]1O [Example 30] | – | – | – | “+++” (50-200) | –
22 | Cc1cc(-c2ccc(C(F)(F)F)nn2)ccc1C(C)[C@H]1O[C@H](CO)[C@@H](O)[C@H](O)[C@@H]1O (stereo partly drawn) [Example 31] | – | – | – | “++++” (<50) | –
23 | C[C@H](c1ccc(-c2cc(C(F)(F)F)ccn2)cc1C(F)(F)F)[C@H]1O[C@H](CO)[C@@H](O)[C@H](O)[C@@H]1O [Example 32] | – | – | – | “+++” (50-200) | –
24 | C[C@H](c1ccc(-c2ccc(C(F)(F)F)cn2)cc1C(F)(F)F)[C@H]1O[C@H](CO)[C@@H](O)[C@H](O)[C@@H]1O [Example 33] | – | – | – | “+++” (50-200) | –
25 | (2R,3S,4R,5S,6R)-2-(Hydroxymethyl)-6-((R)-1-(2-methyl-4-(5-(trifluoromethyl)pyrazin-2-yl)phenyl)allyl)tetrahydro-2H-pyran-3,4,5-triol [Example 6] | “+” (<0.5 h · μM) | – | – | “+++” (50-200) | “++” (10 ≤ x ≤ 30%)
26 | (2R,3S,4R,5S,6R)-2-(Hydroxymethyl)-6-((R)-1-(2-methyl-4-(5-(trifluoromethyl)pyrazin-2-yl)phenyl)propyl)tetrahydro-2H-pyran-3,4,5-triol [Example 5] | “+” (<0.5 h · μM) | – | “++” (0.5 ≤ x ≤ 5%) | “+++” (50-200) | “++” (10 ≤ x ≤ 30%)
